Assay [1] has as its system HSP90. The assay can be described thus: Fluorescence polarization (FP) assay for affinity to HSP90. The class given is binding. Particulars: means of three independent experiments. How it is done: Most of the compounds synthesized were evaluated for their ability to induce degradation of the HSP90 client protein Her2 in SKBR-3 cells. Selected compounds were evaluated in a fluorescence polarization (FP) assay for their affinity to HSP90.
On the technique in general: Polarisation of emitted light reports the rotation of a fluorescent probe.

Assay [2] relates to HSP90 client protein Her2 in SKBR-3 cells. The assay can be described thus: Her-2 degradation assay (Her-2 ELISA) in SKBr-3 cells. It counts as cell-based. Particulars: Homo sapiens. The method in brief:
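SKBr-3 cells in McCoy's 5a/10% FBS treated with increasing inhibitor concentrations for 18 h; lysates (2 ug protein, BCA-normalised) assayed by Her-2 ELISA at 450 nm with no-lysate background subtracted. IC50 from nonlinear fit of A450 versus log inhibitor concentration.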
(In general: An ELISA detects its analyte on a solid surface through an enzyme-linked reagent.)

For assay [3], the system named is MCF-7. Nature of the assay: MTS assay (cytotoxicity), growth inhibition of MCF-7. It counts as cell-based. As to conditions: Homo sapiens, MCF7, 120 h. In short, it runs like this:
(§1)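 Cells seeded at 2000/well for 24 h, then exposed to increasing inhibitor concentrations for 5 days. Viable cells measured by MTS, absorbance 490 nm after 2-4 h, cell-free background subtracted. IC50 from nonlinear least-squares fit of absorbance vs log concentration.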
On the technique in general: Tetrazolium assays rely on reduction of a dye to a coloured formazan, in cell work by metabolically active cells.

Assay [4] has as its system HT29. Nature of the assay: MTS assay (cytotoxicity), growth inhibition of HT29. The class given is cell-based. Particulars: Homo sapiens, HT-29, 120 h. In short, it runs like this: as §1
In assay [5] the test system is SKBR-3. The assay can be described thus: MTS assay (cytotoxicity), growth inhibition of SKBR-3. It counts as cell-based. Particulars: Homo sapiens, SK-BR-3, 120 h. In short, it runs like this: as §1
In assay [6] the test system is BT474. Nature of the assay: MTS assay (cytotoxicity), growth inhibition of BT474. The class given is cell-based. Particulars: Homo sapiens, BT-474, 120 h. The method in brief:
as §1

For assay [7], the system named is hMEpiC. The assay can be described thus: MTS assay (cytotoxicity), growth inhibition of human mammary epithelial cell. It counts as cell-based. Particulars: Table 4, means of three independent experiments. How it is done:
Cells were seeded in 96-well plates at 2000 cells/well in a final culture volume of 100 ul for 24 hours before the addition of 25 ul of increasing concentrations of inhibitors that was incubated for 5 days. Viable cell number was determined using the CellTiter 96 AQueous One Solution Cell Proliferation Assay (Promega). Plates were read at 490 nm absorbance 2-4 hours after addition of the MTS reagent using a multiwell plate spectrophotometer. Background was determined by measuring the Abs 490 nm of cell culture medium and MTS in the absence of cells. The background value was subtracted from all values. Absorbance 490 nm values for each inhibitor were plotted against the log 10 inhibitor concentration, and IC50 values were calculated using a nonlinear least-square curve fitting program in Prism 5.

Setting [8] is: SK-BR-3, Table 2, 18 hours, means of three independent experiments.
The mark [9] stands for this setting: Table 4, 5 days, means of three independent experiments, read-out: MCF-7 IC50 (growth inhibition).
Setting [10] is: Table 4, 5 days, means of three independent experiments, read-out: HT29 IC50 (growth inhibition).
Where [11] appears, read: Table 4, 5 days, means of three independent experiments, read-out: SKBR-3 IC50 (growth inhibition).
Where [12] appears, read: Table 4, 5 days, means of three independent experiments, read-out: BT474 IC50 (growth inhibition).
Setting [13] is: SK-BR-3, Table 1, series I, 18 hours, means of three independent experiments.
Where [14] appears, read: SK-BR-3, Table 5, series III, 18 hours.
Setting [15] is: Table 5, series III, 5 days, read-out: Growth Inhibition (IC50) MCF-7.
[16] abbreviates: Table 5, series III, 5 days, read-out: Growth Inhibition (IC50) HT29.
Where [17] appears, read: Table 5, series III, 5 days, read-out: Growth Inhibition (IC50) SKBR-3.
Where [18] appears, read: Table 5, series III, 5 days, read-out: Growth Inhibition (IC50) BT474.

Molecules are shown by their SMILES. Where two headings read alike, the source gives them in different places.

Broadly, the IC50 is the concentration needed to halve the response being measured. For `COc1c(C)cnc(CN2c3nc(N)nc(Cl)c3N(C(C)C)C(=O)[C@@H]2C(C)C)c1C` [Example I-32], the results for the IC50 in assay [1] (Table 2) and in assay [2] (setting [8]) were 80 nM and 60 nM, respectively.

Regarding `COc1c(C)cnc(CN2c3nc(N)nc(Cl)c3NC(=O)[C@H]2C)c1C` [Example I-26], the IC50 in assay [1] (Table 2) came out at 400 nM; in assay [2] (setting [8]), 350 nM; in assay [3] (setting [9]) it was 790 nM; in assay [4] (setting [10]), 470 nM; in assay [5] (setting [11]), 220 nM; in assay [6] (setting [12]), 410 nM.

With `COc1c(C)cnc(CN2c3nc(N)nc(Cl)c3NC(=O)[C@@H]2C(C)C)c1C` [Example I-28], the concentration for half-maximal inhibition (IC50) in assay [1] (Table 2) came to 2140 nM; in assay [2] (setting [8]), 650 nM; in assay [3] (setting [9]) it was 1600 nM; in assay [4] (setting [10]), 1060 nM; in assay [5] (setting [11]), 430 nM; in assay [6] (setting [12]) it was 760 nM.

Take `COc1c(C)cnc(CN2c3nc(N)nc(Cl)c3NC(=O)[C@@H]2CCO)c1C` [Example I-25]: the IC50 in assay [1] (Table 2) amounted to 640 nM; in assay [2] (setting [8]), 280 nM.

For the compound `COc1c(C)cnc(CN2CC(=O)N(CC(C)C)c3c(Cl)nc(N)nc32)c1C` [Example I-6], the IC50 in assay [1] (Table 1, series I) was found to be 50 nM; in assay [1] (Table 2), 50 nM; in assay [2] (setting [13]) it was 40 nM; in assay [3] (setting [9]), 70 nM; in assay [4] (setting [10]) it was 40 nM; in assay [5] (setting [11]), 10 nM. For the same compound, the figures for the IC50 in assay [6] (setting [12]) and in assay [7] were 20 nM and 130 nM, respectively.

Take `COc1c(C)cnc(CN2CC(=O)N(C)c3c(Cl)nc(N)nc32)c1C` [Example I-5]: the IC50 was 960 nM in assay [1] (Table 1, series I); 930 nM in assay [2] (setting [13]); 2190 nM in assay [3] (setting [9]); 1470 nM in assay [4] (setting [10]); 460 nM in assay [5] (setting [11]); 950 nM in assay [6] (setting [12]).

Take `COc1c(C)cnc(CN2CC(=O)Nc3c(Cl)nc(N)nc32)c1C` [Example I-2]: the IC50 in assay [1] (Table 1, series I) came out at 880 nM; in assay [2] (setting [13]), 570 nM; in assay [3] (setting [9]) it was 1490 nM; in assay [4] (setting [10]), 1180 nM; in assay [5] (setting [11]), 390 nM; in assay [6] (setting [12]), 650 nM.

Consider `Cc1cnc(CN2CC(=O)N(CC(C)C)c3c(Cl)nc(N)nc32)c(C)c1Br` [Example I-34], for which the IC50 in assay [1] (Table 3) is 60 nM; in assay [2] (SK-BR-3, Table 3, 18 hours, means of three independent experiments), 100 nM; in assay [3] (setting [9]) it was 280 nM; in assay [4] (setting [10]) it was 140 nM; in assay [5] (setting [11]), 60 nM; in assay [6] (setting [12]), 130 nM. For the same compound, the IC50 in assay [7] was 180 nM.

With `COc1c(C)cnc(CN2C(=O)/C(=C\c3ccc[nH]3)c3c(Cl)nc(N)nc32)c1C` [III-1, 2-Amino-4-chloro-7-(4-methoxy-3,5-dimethyl-pyridin-2-ylmethyl)-5-[1-(1H-pyrrol-2-yl)-meth-(Z)-ylidene]-5,7-dihydro-pyrrolo[2,3-d]pyrimidin-6-one], the IC50 in assay [2] (setting [14]) turned out to be 90 nM; in assay [3] (setting [15]), 90 nM; in assay [4] (setting [16]), 30 nM; in assay [5] (setting [17]) it was 90 nM; in assay [6] (setting [18]), 30 nM.

Regarding `COc1c(C)cnc(CN2C(=O)/C(=C\c3cc(C(=O)NCCN4CCOCC4)c[nH]3)c3c(Cl)nc(N)nc32)c1C` [III-16, (Z)-5-((2-Amino-4-chloro-7-((4-methoxy-3,5-dimethylpyridin-2-yl)methyl)-6-oxo-6,7-dihydro-5H-pyrrolo[2,3-d]pyrimidin-5-ylidene)methyl)-N-(2-morpholinoethyl)-1H-pyrrole-3-carboxamide], the IC50 in assay [2] (setting [14]) turned out to be 30 nM; in assay [3] (setting [15]) it was 100 nM; in assay [4] (setting [16]), 50 nM; in assay [5] (setting [17]), 20 nM; in assay [6] (setting [18]), 10 nM.

`COc1c(C)cnc(CN2C(=O)/C(=C\c3ccc(C(=O)C(F)(F)F)[nH]3)c3c(Cl)nc(N)nc32)c1C` [III-8, 2-Amino-4-chloro-7-(4-methoxy-3,5-dimethyl-pyridin-2-ylmethyl)-5-[1-[5-(2,2,2-trifluoro-acetyl)-1H-pyrrol-2-yl]-meth-(Z)-ylidene]-5,7-dihydro-pyrrolo[2,3-d]pyrimidin-6-one]: the IC50 was found to be 150 nM in assay [2] (setting [14]); 810 nM in assay [3] (setting [15]); 1310 nM in assay [4] (setting [16]); 150 nM in assay [5] (setting [17]); 470 nM in assay [6] (setting [18]).

In the case of `COc1c(C)cnc(CN2CC(=O)N(C(C)C)c3c(Cl)nc(N)nc32)c1C` [Example I-4], the IC50 in assay [1] (Table 1, series I) stood at 70 nM; in assay [2] (setting [13]) it was 50 nM; in assay [3] (setting [9]), 50 nM; in assay [4] (setting [10]) it was 60 nM; in assay [5] (setting [11]), 20 nM; in assay [6] (setting [12]), 30 nM. In assay [7], the IC50 came out at 320 nM.

On to `COc1c(C)cnc(CN2CC(=O)N(CCCC(C)C)c3c(Cl)nc(N)nc32)c1C` [Example I-3], for which the IC50 in assay [1] (Table 1, series I) turned out to be 900 nM; in assay [2] (setting [13]) it was 1910 nM; in assay [3] (setting [9]), 3110 nM; in assay [4] (setting [10]), 2260 nM; in assay [5] (setting [11]), 970 nM; in assay [6] (setting [12]), 1650 nM.

For `COc1c(C)cnc(CN2C(=O)/C(=C\c3cc(C(=O)NCCN(CCO)CCO)c[nH]3)c3c(Cl)nc(N)nc32)c1C` [III-30, (Z)-5-((2-Amino-4-chloro-7-((4-methoxy-3,5-dimethylpyridin-2-yl)methyl)-6-oxo-6,7-dihydro-5H-pyrrolo[2,3-d]pyrimidin-5-ylidene)methyl)-N-(2-(bis(2-hydroxyethyl)amino)ethyl)-1H-pyrrole-3-carboxamide], the IC50 in assay [2] (setting [14]) stood at 50 nM; in assay [3] (setting [15]), 680 nM; in assay [4] (setting [16]), 210 nM; in assay [5] (setting [17]), 20 nM; in assay [6] (setting [18]), 70 nM.

Values taken from patent US20110124634A1, “BIOACTIVE COMPOUNDS FOR TREATMENT OF CANCER AND NEURODEGENERATIVE DISEASES” (PONIARD PHARMACEUTICALS, INC., priority 2008, published 2011).
